Data as given in US10604476B2, “Fluorinated amide derivatives and their uses as therapeutic agents” (Trillium Therapeutics Inc., priority 2015, dated 2020).

How the values were obtained:
[1] = tested on: gross motor function; test: Fixed speed rotorod, rat (gross motor function); settings: Sprague-Dawley, in vivo, po
Description: On the test day following a defined drug pretreatment period, rats received a maximal electroshock (150 mA, 0.2 s duration, 60 Hz) via corneal electrodes. Protection was defined as absence of a full tonic seizure within 10 s of stimulus delivery. Twenty minutes before the MES procedure, the animals were tested on a fixed speed rotorod (best score from 3 trials at 8 r.p.m, trial duration=60 s) to give an early assessment of drug effect on gross motor function.

[2] = tested on: 6 Hz psychomotor seizure; test: Mouse 6 Hz model; type: in vivo; settings: mice, ip, 0.5 hour, 32 mA
Description: Male, Sprague-Dawley rats and CD-1 mice were used for all studies. All animals were allowed ad-lib access to food and water except during experiment. Animals were housed within an animal vivarium maintained under a 12 h light:dark cycle (lights on: 07:00 h), and all experiments were conducted in the animals light phase. For all experiments, animals were habituated to the vivarium for a minimum of 72 h before experimentation. The experimental procedures used in the present investigation were conducted under the Association for Assessment and Accreditation of Laboratory Animal Care (AAALAC) and the Canadian Council on Animal Care (CCAC) guidelines. All compounds were sonicated in 5% Tween 80® in saline or methylcellulose 0.5% (wgt/vol), using MC and sterile water and injected in a dose volume of 5 ml/kg or 10 ml/kg (rat), and 10 ml/kg (mouse). Drugs were administered by either the oral, intraperitoneal or intravenous route. […] Preliminary experiments established that these stimulus parameters elicited a psychomotor seizure, defined as the expression of at least one of the following behaviors: stun/immobility, forelimb clonus, straub tail, vibrissae tremor, lateral head movement in >95% of control animals. Protection was defined as complete absence of all the above behaviors within 20 s of stimulus delivery. The effective dose of compound necessary to protect against psychomotor seizures to 50% of controls (i.e. ED50) was determined by curve fitting program (Prism v.4.02).

[3] = tested on: gross motor function; test: Rotorod, mouse (Table 8); settings: in vivo, po, Table 8, mouse
[4] = tested on: fully kindled (stage 5) seizures, hippocampal kindled rat; test: Hippocampal kindled rat model (focal seizures); type: in vivo; settings: for suppression of fully kindled (stage 5) seizures compared to vehicle controls: <100 mg/kg i.p.
From the text: Hippocampal Kindled Rat Test is designed to quantify the anti-convulsant effects of a test compound in the kindled rat model. Rats treated by i.p. injection.
The Kindled Rat is a model of temporal lobe epilepsy, which is the most common and drug-resistant type of adult focal epilepsy (Morimoto et al., 2004). […] This acquired hyper-responsiveness is called kindling and results not only in increased seizure responses but also in an elongation of the after-discharge duration seen on an EEC recording.
Electrodes are implanted into the hippocampus of anesthetized rats, which are then allowed to recover for one week. Following the rapid kindling protocol (Lothman and Williamson, Brain Res 1994, 649:71-84), the rats are stimulated with 200 jiA for 10 s, 50 Hz, every 30 minutes for six hours on alternate days until they are fully kindled (4-5 stimulus days). After one week of rest, the animals are given the same electrical stimulus which serves as a baseline. The animals are pretreated with the test compound (generally via i.p. injection) and then tested at various intervals. At each time point, the behavioral seizure score (BSS) and after-discharge duration (ADD) is recorded. The BSS's are scored according to the following criteria (Racine, Electroencephalogr Clin Neurophysiol 1972, 32:281-94): Stage 1—mouth and facial clonus; Stage 2—stage 1 plus head nodding; Stage 3—stage 2 plus forelimb clonus; Stage 4—stage 3 plus rearing; and Stage 5—stage 4 plus repeated rearing and falling.
The after discharge threshold (ADT) can also be measured in the kindled rat. The ADT is defined as the lowest current at which an after discharge of at least 4 s is elicited. […] The initial stimulation is conducted at an intensity of 20 uA with 10 uA increments every 1-2 min until an after discharge is elicited. Fifteen minutes after the pre-drug threshold determination, a single dose of the test substance is administered to two animals in a volume of 0.04 ml/10 g body weight. In this way the animals serves as its own control. The individual rat ADT is then determined at varying times (i.e., 0.25, 1, 2, and 4 hr) after drug administration.
Ability of a compound to block behavioral seizures and/or decrease the afterdischarge duration (ADD) in a hippocampal kindled rat model. The hippocampal kindled rat provides an experimental model of focal seizures that become secondarily generalized. This rat model is useful for not only identifying compounds effective against partial seizures, but also allows for the investigation of complex brain networks that may contribute to seizure spread and generalization from a focus. Moreover, of the various electrical kindling paradigms described in the literature, the hippocampal kindling model offers several distinct advantages for the routine screening and evaluation of potential anticonvulsant compounds. First, this model provides a temporal framework for assessing drug efficacy in a focal seizure model. Specifically, the refractory period of individual animals is sufficiently short to permit repeated stimulations over a short time span. Second, this kindled rat model can be employed to assess the ability of an investigational compound to block fully kindled seizures evoked by an electrical stimulus. Finally, the hippocampal kindled rat model can also be used to assess the ability of an investigational compound to elevate threshold to focal firing modulation by an investigational drug. Therefore, compounds with a subtle effect on focal seizure activity in the kindled rat are not likely to be overlooked in the threshold test, thereby making the hippocampal kindled rat a useful screen at the ETSP.
Animals are first surgically prepared for kindling acquisition. Adult, male Sprague-Dawley rats (275-300 g) are surgically implanted with bipolar electrodes. Briefly, a bipolar electrode is stereoaxically implanted into the ventral hippocampus (AP −3.6, ML −4.9, VD −5.0 from dura, incisor bar +5.0) under ketamine-xylazine anesthesia. […]

ED50 at 0.5 hour [1] | ED50 at 0.5 hour [3] | Compound | ED50 [2] | Average Seizure ([4]; 20 mg/kg) | N/F, number of animals active over the number tested ([4]; 20 mg/kg) | Average Seizure ([4]; 40 mg/kg) | N/F, number of animals active over the number tested ([4]; 40 mg/kg) | Average Seizure ([4]; 80 mg/kg) | N/F, number of animals active over the number tested ([4]; 80 mg/kg) | suppression of fully kindled (stage 5) seizures compared to vehicle controls [4] | EC50, reduction of seizure score (seizure severity) ([4]; hippocampal kindled rat, Example 8)
> 500 mg/kg | > 170 mg/kg | C[C@@H](Oc1cc(Cl)cc(C(F)(F)F)c1)C(N)=O [I(D), (2R)-2-[3-chloro-5-(trifluoromethyl)-phenoxy]propanamide] | 48.5 ± 1 mg/kg | 4.9 | 1/8 | 2.5 | 1/8 | 1 | 5/8 | dose related suppression | 49.4 ± 1.47 mg/kg
> 500 mg/kg | > 130 mg/kg | NC(=O)COc1cc(C(F)(F)F)cc(C(F)(F)F)c1 [I(F), 2-[3,5 bis(trifluoromethyl)-phenoxy]acetamide;] | 38.5 ± 1 mg/kg | – | – | – | – | – | – | dose related suppression | –
